Reference: patent EP3928779A1 (Chugai Seiyaku Kabushiki Kaisha, priority 2014, dated 2016)

System: rat small-intestinal brush border membrane vesicles
Experiment: Inhibitory effect on 33PO4 uptake into rat small-intestinal brush border membrane vesicles (rapid filtration method)
Format: biochemical
Conditions: 33PO4 uptake into rat small-intestinal BBMVs; test compound 1 µM; reacted for 60 seconds
Summary of the method: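 Uptake of ^33PO4 was measured by rapid filtration and liquid scintillation counting of filter-retained vesicles, after quenching with ice-cold 110 mM NaCl/1 mM KH2PO4/10 mM HEPES pH 7.5. Vesicles were brush border membranes from the upper small intestine of female Wistar rats aged 4–5 weeks.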

SMILES | Rate of uptake inhibition (%) (1 µM)
C[C@]12CCCN1N(Cc1ccc(SCCN3CCOCC3)c(F)c1F)C(=O)C(C(=O)Nc1ccc(C(F)(F)F)cc1-c1ccc(C(F)(F)F)nc1)=C2O.Cl [Example 163, (4aR)-1-[[2,3-Difluoro-4-(2-morpholin-4-ylethylsulfanyl)phenyl]methyl]-4-hydroxy-4a-methyl-2-oxo-N-[4-(trifluoromethyl)-2-[6-(trifluoromethyl)pyridin-3-yl]phenyl]-6,7-dihydro-5H-pyrrolo[1,2-b]pyridazine-3-carboxamide hydrochloride] | 79%
COC(=O)c1cc(F)c(CN2C(=O)C(C(=O)Nc3ccc(C(F)(F)F)cc3-c3ccc(C(F)(F)F)nc3)=C(O)[C@@]3(C)CCCN23)c(F)c1 [Example 165, Methyl 4-[[(4aR)-4-Hydroxy-4a-methyl-2-oxo-3-[[4-(trifluoromethyl)-2-[6-(trifluoromethyl)pyridin-3-yl]phenyl]carbamoyl]-6,7-dihydro-5H-pyrrolo[1,2-b]pyridazin-1 - yl]methyl]-3,5-difluorobenzoate] | 75%
C[C@]12CCCN1N(Cc1ccc(Br)cc1F)C(=O)C(C(=O)Nc1cc(F)c(Br)c(F)c1)=C2O [Example 166, (4aR)-N-(4-Bromo-3,5-difluorophenyl)-1-[(4-bromo-2-fluorophenyl)methyl]-4-hydroxy-4a-methyl-2-oxo-6,7-dihydro-5H-pyrrolo[1,2-b]pyridazine-3-carboxamide] | 73%
C[C@]12CCCN1N(Cc1cccc(OC(F)F)c1)C(=O)C(C(=O)Nc1ccc(C(F)(F)F)cc1-c1ccc(C(F)(F)F)nc1)=C2O [Example 167] | 73%
C[C@]12CCCN1N(Cc1ccccc1Cl)C(=O)C(C(=O)Nc1ccc(C(F)(F)F)cc1-c1ccc(C(F)(F)F)nc1)=C2O [Example 168] | 72%
C[C@]12CCCN1N(Cc1cccc(Cl)c1)C(=O)C(C(=O)Nc1ccc(C(F)(F)F)cc1-c1ccc(C(F)(F)F)nc1)=C2O [Example 169] | 73%
C[C@]12CCCN1N(Cc1ccc(F)c(F)c1)C(=O)C(C(=O)Nc1ccc(C(F)(F)F)cc1-c1ccc(C(F)(F)F)nc1)=C2O [Example 170] | 73%
C[C@]12CCCN1N(Cc1cc(F)cc(F)c1)C(=O)C(C(=O)Nc1ccc(C(F)(F)F)cc1-c1ccc(C(F)(F)F)nc1)=C2O [Example 171] | 78%
C[C@]12CCCN1N(Cc1cc(F)ccc1F)C(=O)C(C(=O)Nc1ccc(C(F)(F)F)cc1-c1ccc(C(F)(F)F)nc1)=C2O [Example 172] | 72%
C[C@]12CCCN1N(Cc1ccc(F)cc1F)C(=O)C(C(=O)Nc1ccc(C(F)(F)F)cc1-c1ccc(C(F)(F)F)nc1)=C2O [Example 173] | 73%
C[C@]12CCCN1N(Cc1cccc(F)c1Cl)C(=O)C(C(=O)Nc1cc(F)c(Br)c(F)c1)=C2O [Example 174] | 87%
COc1cccc(CN2C(=O)C(C(=O)Nc3ccc(C(F)(F)F)cc3-c3ccc(C(F)(F)F)nc3)=C(O)[C@@]3(C)CCCN23)c1OC [Example 175] | 85%
COc1ccc(OC)c(CN2C(=O)C(C(=O)Nc3ccc(C(F)(F)F)cc3-c3ccc(C(F)(F)F)nc3)=C(O)[C@@]3(C)CCCN23)c1 [Example 176] | 75%
C[C@]12CCCN1N(Cc1cccc(OC(F)F)c1)C(=O)C(C(=O)Nc1ccc(C(F)(F)F)cc1-c1cc(C(F)(F)F)ncn1)=C2O [Example 177] | 85%
C[C@]12CCCN1N(Cc1ccccc1C#N)C(=O)C(C(=O)Nc1ccc(C(F)(F)F)cc1-c1cc(C(F)(F)F)ncn1)=C2O [Example 178] | 81%
C[C@]12CCCN1N(Cc1cccc(C#N)c1)C(=O)C(C(=O)Nc1ccc(C(F)(F)F)cc1-c1cc(C(F)(F)F)ncn1)=C2O [Example 179] | 83%
C[C@]12CCCN1N(Cc1ccccc1Cl)C(=O)C(C(=O)Nc1ccc(C(F)(F)F)cc1-c1cc(C(F)(F)F)ncn1)=C2O [Example 180] | 75%
C[C@]12CCCN1N(Cc1cccc(Cl)c1)C(=O)C(C(=O)Nc1ccc(C(F)(F)F)cc1-c1cc(C(F)(F)F)ncn1)=C2O [Example 181] | 85%

SMILES | Rate of uptake inhibition (%) (1 µM)
C[C@]12CCCN1N(Cc1ccc(Cl)cc1)C(=O)C(C(=O)Nc1ccc(C(F)(F)F)cc1-c1cc(C(F)(F)F)ncn1)=C2O [Example 182] | 86%
COC(=O)c1cccc(CN2C(=O)C(C(=O)Nc3ccc(C(F)(F)F)cc3-c3cc(C(F)(F)F)ncn3)=C(O)[C@@]3(C)CCCN23)c1 [Example 183] | 82%
C[C@]12CCCN1N(Cc1ccc(F)c(Br)c1)C(=O)C(C(=O)Nc1ccc(C(F)(F)F)cc1-c1cc(C(F)(F)F)ncn1)=C2O [Example 184] | 79%
Cc1ccccc1CN1C(=O)C(C(=O)Nc2ccc(C(F)(F)F)cc2-c2cc(C(F)(F)F)ncn2)=C(O)[C@@]2(C)CCCN12 [Example 185] | 83%
Cc1cccc(CN2C(=O)C(C(=O)Nc3ccc(C(F)(F)F)cc3-c3cc(C(F)(F)F)ncn3)=C(O)[C@@]3(C)CCCN23)c1 [Example 186] | 88%
Cc1ccc(CN2C(=O)C(C(=O)Nc3ccc(C(F)(F)F)cc3-c3cc(C(F)(F)F)ncn3)=C(O)[C@@]3(C)CCCN23)cc1 [Example 187] | 80%
C[C@]12CCCN1N(Cc1ccccc1)C(=O)C(C(=O)Nc1ccc(C(F)(F)F)cc1-c1cc(C(F)(F)F)ncn1)=C2O [Example 188] | 93%
C[C@]12CCCN1N(Cc1cccc(OC(F)(F)F)c1)C(=O)C(C(=O)Nc1ccc(C(F)(F)F)cc1-c1cc(C(F)(F)F)ncn1)=C2O [Example 189] | 73%
C[C@]12CCCN1N(Cc1cc(F)cc(F)c1)C(=O)C(C(=O)Nc1cc(F)c(Br)c(F)c1)=C2O [Example 190] | 84%
C[C@]12CCCN1N(Cc1ccc(F)c(F)c1)C(=O)C(C(=O)Nc1cc(F)c(Br)c(F)c1)=C2O [Example 191] | 87%
C[C@]12CCCN1N(Cc1ccc(F)cc1F)C(=O)C(C(=O)Nc1cc(F)c(Br)c(F)c1)=C2O [Example 192] | 88%
C[C@]12CCCN1N(Cc1cc(F)ccc1F)C(=O)C(C(=O)Nc1cc(F)c(Br)c(F)c1)=C2O [Example 193] | 82%
C[C@]12CCCN1N(Cc1cc(F)c(F)cc1F)C(=O)C(C(=O)Nc1cc(F)c(Br)c(F)c1)=C2O [Example 194] | 80%
Cc1cccc(CN2C(=O)C(C(=O)Nc3cc(F)c(Br)c(F)c3)=C(O)[C@@]3(C)CCCN23)c1F [Example 195] | 76%
C[C@]12CCCN1N(Cc1cc(F)c(F)c(F)c1)C(=O)C(C(=O)Nc1cc(F)c(Br)c(F)c1)=C2O [Example 197] | 82%
C[C@]12CCCN1N(Cc1cccc(Cl)c1F)C(=O)C(C(=O)Nc1ccc(C(F)(F)F)cc1-c1ccc(C(F)(F)F)nc1)=C2O [Example 198] | 75%
C[C@]12CCCN1N(Cc1ccc(F)cc1)C(=O)C(C(=O)Nc1ccc(C(F)(F)F)cc1-c1ccc(C(F)(F)F)nc1)=C2O [Example 199] | 79%
